According to ChEMBL document CHEMBL1132390, “Chemical modifications and structure activity studies of ziracin and related everninomicin antibiotics” (1999):
Values after ≈ are worked out from the molar mass of the structure shown.

Key:
[1] = test system: Staphylococcus sp.; assay: In vitro antibacterial activity of compound against Staphylococci bacteria.; assay type: functional
[2] = test system: Enterococcus sp.; assay: In vitro antibacterial activity of compound against Enterococci bacteria.; assay type: functional

MIC [1] | MIC [2] | Compound
2 µg/mL (≈ 1.16 µM) | 4 µg/mL (≈ 2.31 µM) | COC[C@H]1O[C@@H](O[C@@H]2OC[C@@H]3O[C@@]4(OC[C@@H](OC(=O)c5c(C)cc(O)cc5O)[C@@H]5OCO[C@H]54)O[C@H]3[C@H]2OCCNC(C)=O)[C@@H](OC)[C@@H](O)[C@@H]1O[C@@H]1O[C@H](C)[C@H](OC)[C@H](O[C@@H]2O[C@H](C)[C@H]3O[C@]4(C[C@@H](O)[C@H](O[C@H]5C[C@@H](O[C@H]6C[C@](C)([N+](=O)[O-])[C@@H](OC)[C@H](C)O6)[C@H](OC(=O)c6c(C)c(Cl)c(O)c(Cl)c6OC)[C@@H](C)O5)[C@@H](C)O4)O[C@]3(C)[C@@H]2O)[C@@]1(C)O
16 µg/mL (≈ 8.84 µM) | 8 µg/mL (≈ 4.42 µM) | C=CCOc1cc(C)c(C(=O)O[C@@H]2CO[C@]3(O[C@H]4[C@@H](OCCO)[C@H](O[C@@H]5O[C@H](COC)[C@@H](O[C@@H]6O[C@H](C)[C@H](OC)[C@H](O[C@@H]7O[C@H](C)[C@H]8O[C@]9(C[C@@H](O)[C@H](O[C@H]%10C[C@@H](O[C@H]%11C[C@](C)([N+](=O)[O-])[C@@H](OC)[C@H](C)O%11)[C@H](OC(=O)c%11c(C)c(Cl)c(OCC=C)c(Cl)c%11OC)[C@@H](C)O%10)[C@@H](C)O9)O[C@]8(C)[C@@H]7O)[C@@]6(C)O)[C@H](O)[C@@H]5OC)OC[C@@H]4O3)[C@@H]3OCO[C@H]32)c(OCC=C)c1
1 µg/mL (≈ 0.603 µM) | 2 µg/mL (≈ 1.21 µM) | COC[C@H]1O[C@@H](O[C@@H]2OC[C@@H]3O[C@@]4(OC[C@@H](OC(=O)c5c(C)cc(O)cc5O)[C@@H]5OCO[C@H]54)O[C@H]3[C@H]2O)[C@@H](OC)[C@@H](O)[C@@H]1O[C@@H]1O[C@H](C)[C@H](OC)[C@H](O[C@@H]2O[C@H](C)[C@H]3O[C@]4(C[C@@H](O)[C@H](O[C@H]5C[C@@H](O[C@H]6C[C@](C)(NC(C)=O)[C@@H](OC)[C@H](C)O6)[C@H](OC(=O)c6c(C)c(Cl)c(O)c(Cl)c6OC)[C@@H](C)O5)[C@@H](C)O4)O[C@]3(C)[C@@H]2O)[C@@]1(C)O
32 µg/mL (≈ 15.9 µM) | 8 µg/mL (≈ 3.98 µM) | COC[C@H]1O[C@@H](O[C@@H]2OC[C@@H]3O[C@@]4(OC[C@@H](OC(=O)c5c(C)cc(O)cc5O)[C@@H]5OCO[C@H]54)O[C@H]3[C@H]2O)[C@@H](OC)[C@@H](O)[C@@H]1O[C@@H]1O[C@H](C)[C@H](OC)[C@H](O[C@@H]2O[C@H](C)[C@H]3O[C@]4(C[C@@H](O)[C@H](O[C@H]5C[C@@H](O[C@H]6C[C@](C)(NC(=O)[C@@H](CCCCNC(=O)OCc7ccccc7)NC(=O)OCc7ccccc7)[C@@H](OC)[C@H](C)O6)[C@H](OC(=O)c6c(C)c(Cl)c(O)c(Cl)c6OC)[C@@H](C)O5)[C@@H](C)O4)O[C@]3(C)[C@@H]2O)[C@@]1(C)O
4 µg/mL (≈ 2.37 µM) | 4 µg/mL (≈ 2.37 µM) | COC[C@H]1O[C@@H](O[C@@H]2OC[C@@H]3O[C@@]4(OC[C@@H](OC(=O)c5c(C)cc(O)cc5O)[C@@H]5OCO[C@H]54)O[C@H]3[C@H]2O)[C@@H](OC)[C@@H](O)[C@@H]1O[C@@H]1O[C@H](C)[C@H](OC)[C@H](O[C@@H]2O[C@H](C)[C@H]3O[C@]4(C[C@@H](O)[C@H](O[C@H]5C[C@@H](O[C@H]6C[C@](C)(NC(=O)[C@H](C)N)[C@@H](OC)[C@H](C)O6)[C@H](OC(=O)c6c(C)c(Cl)c(O)c(Cl)c6OC)[C@@H](C)O5)[C@@H](C)O4)O[C@]3(C)[C@@H]2O)[C@@]1(C)O
4 µg/mL (≈ 2.37 µM) | 4 µg/mL (≈ 2.37 µM) | C=CCOc1c(Cl)c(C)c(C(=O)O[C@@H]2[C@@H](C)O[C@@H](O[C@H]3[C@H](O)C[C@]4(O[C@@H]5[C@@H](C)O[C@@H](O[C@H]6[C@@H](OC)[C@@H](C)O[C@@H](O[C@H]7[C@H](O)[C@H](OC)[C@H](O[C@@H]8OC[C@@H]9O[C@@]%10(OC[C@@H](OC(=O)c%11c(C)cc(O)cc%11O)[C@@H]%11OCO[C@H]%11%10)O[C@H]9[C@H]8O)O[C@@H]7COC)[C@]6(C)O)[C@@H](O)[C@@]5(C)O4)O[C@@H]3C)C[C@H]2O[C@H]2C[C@](C)([N+](=O)[O-])[C@@H](OC)[C@H](C)O2)c(OC)c1Cl
1 µg/mL (≈ 0.592 µM) | 0.5 µg/mL (≈ 0.296 µM) | COC[C@H]1O[C@@H](O[C@@H]2OC[C@@H]3O[C@@]4(OC[C@@H](OC(=O)c5c(C)cc(O)cc5O)[C@@H]5OCO[C@H]54)O[C@H]3[C@H]2OCCO)[C@@H](OC)[C@@H](O)[C@@H]1O[C@@H]1O[C@H](C)[C@H](OC)[C@H](O[C@@H]2O[C@H](C)[C@H]3O[C@]4(C[C@@H](O)[C@H](O[C@H]5C[C@@H](O[C@H]6C[C@](C)([N+](=O)[O-])[C@@H](OC)[C@H](C)O6)[C@H](OC(=O)c6c(C)c(Cl)c(O)c(Cl)c6OC)[C@@H](C)O5)[C@@H](C)O4)O[C@]3(C)[C@@H]2O)[C@@]1(C)O
32 µg/mL (≈ 17.2 µM) | 4 µg/mL (≈ 2.15 µM) | COC[C@H]1O[C@@H](O[C@@H]2OC[C@@H]3O[C@@]4(OC[C@@H](OC(=O)c5c(C)cc(O)cc5O)[C@@H]5OCO[C@H]54)O[C@H]3[C@H]2OCC(=O)OC)[C@@H](OC)[C@@H](OCC(=O)OC)[C@@H]1O[C@@H]1O[C@H](C)[C@H](OC)[C@H](O[C@@H]2O[C@H](C)[C@H]3O[C@]4(C[C@@H](O)[C@H](O[C@H]5C[C@@H](O[C@H]6C[C@](C)([N+](=O)[O-])[C@@H](OC)[C@H](C)O6)[C@H](OC(=O)c6c(C)c(Cl)c(O)c(Cl)c6OC)[C@@H](C)O5)[C@@H](C)O4)O[C@]3(C)[C@@H]2OCC(=O)OC)[C@@]1(C)O
2 µg/mL (≈ 1.17 µM) | 2 µg/mL (≈ 1.17 µM) | COC[C@H]1O[C@@H](O[C@@H]2OC[C@@H]3O[C@@]4(OC[C@@H](OC(=O)c5c(C)cc(O)cc5O)[C@@H]5OCO[C@H]54)O[C@H]3[C@H]2OCCN=[N+]=[N-])[C@@H](OC)[C@@H](O)[C@@H]1O[C@@H]1O[C@H](C)[C@H](OC)[C@H](O[C@@H]2O[C@H](C)[C@H]3O[C@]4(C[C@@H](O)[C@H](O[C@H]5C[C@@H](O[C@H]6C[C@](C)([N+](=O)[O-])[C@@H](OC)[C@H](C)O6)[C@H](OC(=O)c6c(C)c(Cl)c(O)c(Cl)c6OC)[C@@H](C)O5)[C@@H](C)O4)O[C@]3(C)[C@@H]2O)[C@@]1(C)O
2 µg/mL (≈ 1.24 µM) | 4 µg/mL (≈ 2.48 µM) | COC[C@H]1O[C@@H](O[C@@H]2OC[C@@H]3O[C@@]4(OC[C@@H](OC(=O)c5c(C)cc(O)cc5O)[C@@H]5OCO[C@H]54)O[C@H]3[C@H]2O)[C@@H](OC)[C@@H](O)[C@@H]1O[C@@H]1O[C@H](C)[C@H](OC)[C@H](O[C@@H]2O[C@H](C)[C@H]3O[C@]4(C[C@@H](O)[C@H](O[C@H]5C[C@@H](O[C@H]6C[C@](C)(N)[C@@H](OC)[C@H](C)O6)[C@H](OC(=O)c6c(C)c(Cl)c(O)c(Cl)c6OC)[C@@H](C)O5)[C@@H](C)O4)O[C@]3(C)[C@@H]2O)[C@@]1(C)O
16 µg/mL (≈ 9.33 µM) | 4 µg/mL (≈ 2.33 µM) | COC[C@H]1O[C@@H](O[C@@H]2OC[C@@H]3O[C@@]4(OC[C@@H](OC(=O)c5c(C)cc(O)cc5O)[C@@H]5OCO[C@H]54)O[C@H]3[C@H]2OC)[C@@H](OC)[C@@H](OC)C1O[C@@H]1O[C@H](C)[C@H](OC)C(O[C@@H]2O[C@H](C)[C@H]3O[C@]4(C[C@@H](OC)[C@H](O[C@H]5C[C@@H](O[C@H]6C[C@](C)([N+](=O)[O-])[C@@H](OC)[C@H](C)O6)[C@H](OC(=O)c6c(C)c(Cl)c(O)c(Cl)c6OC)[C@@H](C)O5)[C@@H](C)O4)O[C@]3(C)[C@@H]2OC)[C@@]1(C)OC (stereo partly specified)
2 µg/mL (≈ 1.23 µM) | 0.25 µg/mL (≈ 0.153 µM) | COC[C@H]1O[C@@H](O[C@@H]2OC[C@@H]3O[C@@]4(OC[C@@H](OC(=O)c5c(C)cc(O)cc5O)[C@@H]5OCO[C@H]54)O[C@H]3[C@H]2O)[C@@H](OC)[C@@H](O)[C@@H]1O[C@@H]1O[C@H](C)[C@H](OC)[C@H](O[C@@H]2O[C@H](C)[C@H]3O[C@]4(C[C@@H](O)[C@H](O[C@H]5C[C@@H](O[C@H]6C[C@](C)([N+](=O)[O-])[C@@H](OC)[C@H](C)O6)[C@H](OC(=O)c6c(C)c(Cl)c(O)c(Cl)c6OC)[C@@H](C)O5)[C@@H](C)O4)O[C@]3(C)[C@@H]2O)[C@H]1O [EVERNIMICIN]
2 µg/mL (≈ 1.06 µM) | 2 µg/mL (≈ 1.06 µM) | COC[C@H]1O[C@@H](O[C@@H]2OC[C@@H]3O[C@@]4(OC[C@@H](OC(=O)c5c(C)cc(O)cc5O)[C@@H]5OCO[C@H]54)O[C@H]3[C@H]2O)[C@@H](OC)[C@@H](O)[C@@H]1O[C@@H]1O[C@H](C)[C@H](OC)[C@H](O[C@@H]2O[C@H](C)[C@H]3O[C@]4(C[C@@H](O)[C@H](O[C@H]5C[C@@H](O[C@H]6C[C@](C)(NC(=O)[C@H](CCSC)NC(=O)OCc7ccccc7)[C@@H](OC)[C@H](C)O6)[C@H](OC(=O)c6c(C)c(Cl)c(O)c(Cl)c6OC)[C@@H](C)O5)[C@@H](C)O4)O[C@]3(C)[C@@H]2O)[C@@]1(C)O
